Source: the NIST ThermoML archive (doi:10.1016/j.jct.2013.01.015)
Numbers after ± are expanded uncertainties.

Experiments:
[1] = 298.15 K; 101.33 kPa; Liquid; Vibrating tube method
[2] = refractive index (Na D-line) (dimensionless); conditions: 101.33 kPa, Liquid, Standard Abbe refractometry

mass density [1] [kg/m3] | refractive index ([2]; 298.2 K) | refractive index ([2]; 298.15 K) | SMILES
952.7 ± 0.2 | 1.3976 ± 0.0008 |  | CCCC(=O)O [butanoic acid]
815.2 ± 0.6 |  | 1.4155 ± 0.0009 | CCCCCCO [hexan-1-ol]
654.6 ± 0.3 |  | 1.3751 ± 0.0008 | CCCCCC [hexane]

SMILES | mass density [1] [kg/m3] | refractive index ([2]; 298.2 K) | refractive index ([2]; 298.15 K)
O [water] |  |  | 1.3325 ± 0.0008
